Read-outs that look alike come from different tables or passages of the source.

The source of these data is US6828458B2, “Topical antiandrogen for hair loss and other hyperandrogenic conditions” (Biophysica, Inc., priority 2000, dated 2004).

The target in one series is T1, Androgen Receptor (Homo sapiens, UniProt P10275, T878A).
T1 construct: endogenous in cells; host or cells: LNCaP cells
T1 sequence (P10275 1-920 T878A): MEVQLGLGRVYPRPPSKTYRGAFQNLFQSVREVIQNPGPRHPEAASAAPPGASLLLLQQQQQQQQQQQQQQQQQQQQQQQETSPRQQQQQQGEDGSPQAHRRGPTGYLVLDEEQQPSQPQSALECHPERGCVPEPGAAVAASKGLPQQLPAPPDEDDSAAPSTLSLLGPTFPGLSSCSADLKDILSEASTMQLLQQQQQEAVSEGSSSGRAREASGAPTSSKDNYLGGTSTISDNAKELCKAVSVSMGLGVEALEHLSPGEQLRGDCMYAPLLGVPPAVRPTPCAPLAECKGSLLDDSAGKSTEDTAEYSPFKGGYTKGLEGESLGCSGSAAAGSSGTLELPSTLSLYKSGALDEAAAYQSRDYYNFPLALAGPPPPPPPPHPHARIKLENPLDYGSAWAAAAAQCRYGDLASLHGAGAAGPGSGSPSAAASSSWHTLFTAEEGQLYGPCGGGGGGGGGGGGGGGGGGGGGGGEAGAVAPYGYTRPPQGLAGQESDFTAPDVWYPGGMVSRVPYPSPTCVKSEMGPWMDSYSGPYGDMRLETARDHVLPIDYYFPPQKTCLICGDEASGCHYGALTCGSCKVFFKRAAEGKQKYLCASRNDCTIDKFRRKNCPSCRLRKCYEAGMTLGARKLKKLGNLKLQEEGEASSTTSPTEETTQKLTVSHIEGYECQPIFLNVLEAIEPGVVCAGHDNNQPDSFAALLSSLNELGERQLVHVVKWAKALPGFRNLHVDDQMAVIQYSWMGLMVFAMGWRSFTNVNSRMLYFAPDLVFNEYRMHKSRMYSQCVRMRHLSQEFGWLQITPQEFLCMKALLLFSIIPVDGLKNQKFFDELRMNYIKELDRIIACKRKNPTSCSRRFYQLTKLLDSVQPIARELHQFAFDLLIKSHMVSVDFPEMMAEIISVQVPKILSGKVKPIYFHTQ
Briefly: Androgen receptor remaining in LNCaP cells after incubation, Western Blot of lysate. The conditions noted are these: for Percent Androgen Receptor Remaining in LNCaP Cells: 48 hrs. incubation. Type of series: cell-based. The procedure:
The interaction of BP-766 with androgenic receptors was studied by incubation with LNCaP cells, (known to contain human AR), subsequent cell lysis and the Western Blot assay to identify and quantify the androgenic receptors protein.

In series [1] the test system is mice. The note with it: cited from earlier work.
Series [2] can be described thus: Cutaneous absorption in rabbits, serum analyzed by HPLC. Type of series: in vivo, rabbit. The note with it: BP-766 topical twice daily (0.6 mg/kg-day) for ten days, limit of detection approximately 10 ng/ml. The method, then: (§1) BP-766 was applied topically twice daily to simulate the intended human application (0.6 mg/kg-day), on the two 10 cm^2 separate areas of a closely shaved skin of four rabbits, for ten days. One ml blood samples were collected at 2, 5 and 21 hours after the first application, and once every other day thereafter. Serum was analyzed by HPLC. Using spiked and blank serum samples and a linearity determination, the limits of detection of BP-766 and/or BP-34 were established as approximately 10 ng/ml. […] The cutaneous absorption in rabbits is known to be about 5 to 6 times greater than in humans (Marzulic, F. N. and Maibach, H.: Dermatotoxicology, 5th Edition, Taylor & Frasier, Washington, D.C. 1966) so that even with the detection limits of this method, only trace amounts could ever be expected in humans.

In series [3] the test system is mice. Briefly: Systemic toxicity by intraperitoneal injections in mice. The format is in vivo, mouse. The method, then: (§2) The systemic toxicity of BP-766 was orientationally evaluated by multiple intraperitoneal (i.p.) injections in mice. […] […] The murine maximum tolerated dose (MTD) was approximately 300 mg/kg.
A short description of series [4]: Accelerated shelf stability of formulated solutions, HPLC. The format is physicochemical. The conditions noted are these: for BP-766 remaining: anhydrous isopropanol. From the text:
(Table 3). […] (Connors, Kenneth A; Amidon, Gordon L.; Stella, Valentino J. Chemical Stability of Pharmaceuticals—A Handbook for Pharmacists. Second Edition, 1986, John Wiley & Sons)

Series [5] is described as follows: Biodegradation in human serum, HPLC. The format is in vitro ADME. The note with it: 38° C., 0.5 mg/ml. The method, then:
BP-766 was tested for degradation by incubation with human serum at 38° C., at a concentration of 0.5 mg/ml. It would be desirable for safety that should BP-766 for any unexpected reason be resorbed from the skin, it should decompose into rapidly excretable non-toxic components. The only products of biodegradation of BP-766 are the precursor BP-34, and trifluoroacetic acid, which both have good biological tolerance. […] (Permadi, H; Lundgren, B; Andersson K; Sundberg C; DePierre J W. Effects of perfluoro fatty acids on peroxisome proliferation and mitochondrialsize in mouse liver: dose and time factors and effect of chain length. Xenobiotica, (1993) Vol 23, No. 7, pp. 761-70). Orientational toxicity of BP-34 is described further below.

For series [6], the system named is volunteers with incipient androgenic effluvium and/or alopecia. Briefly: Topical treatment of volunteers with androgenic effluvium and/or alopecia. The format is in vivo, human.
Series [7] has as its system rabbits. Briefly: Skin irritation potential according to ISO 10 993-10. The format is in vivo, rabbit. The method, then:
BP-766 was also evaluated by an independent laboratory according to ISO 10 993-10, in rabbits. A single application of 0.5 ml as a 1% (m/v) solution in anhydrous isopropyl alcohol and/or the vehicle only was employed. The application site was covered in one group, and not covered in an other group, each consisting of six rabbits. […] Non-irritability was defined by an arbitrary index, ranging from 0 to 0.4.

Series [8] in a line: Acute oral toxicity in NMRI mice. The conditions noted are these: mouse, in vivo, probit analysis. The procedure:
(§3) Acute oral toxicity of BP-766 was determined in NMRI mice and Wistar rats.

The test system of the next series is Wistar rats. Briefly: Acute oral toxicity in Wistar rats. The format is in vivo, rat. The conditions noted are these: male and female. The method, then:
as §3

For series [9], the system named is rabbits. Put plainly: Cutaneous irritation observed daily in rabbits during ten-day topical application. The note with it: topical twice daily for ten days. Type of series: in vivo, rabbit. The method, then:
as §1

The nature of series [10]: Systemic toxicity by intraperitoneal injections in mice. The format is in vivo, mouse. The note with it: mouse, in vivo, ip, i.p. injections, read-out: murine maximum tolerated dose (MTD). The method, then:
as §2

As to `CC(C)(O)C(=O)Nc1ccc([N+](=O)[O-])c(C(F)(F)F)c1` [Hydroxyflutamide, reference compound], the “Percent Androgen Receptor Remaining in LNCaP Cells” value was determined as 98% on Androgen Receptor (3 μ Molar conc.) and 94% at Androgen Receptor (10 μ Molar conc.). At Androgen Receptor (any concentration, after 48 hrs.), the “effect on the androgenic receptors (in words)” value was “did not a affect the androgenic receptors significantly”.
Regarding `O=C(O)C(F)(F)F` [trifluoroacetic acid], the “toxicity when fed to mice” value in the series with mice [1] is on record as “showed no toxicity”.
As to “4-nitro-3-trifluoromethyl-N-(2-hydroxy-2-methyl-3-amino [BP-34]”, the “effect on the androgenic receptors (in words)” value at Androgen Receptor is “had no effect on the androgenic receptors”. For the same compound, the “Percent Androgen Receptor Remaining in LNCaP Cells” value at Androgen Receptor (3 μ Molar conc.) is 97%; on Androgen Receptor (10 μ Molar conc.), 98%. Also, in series [2], the “BP-766 and/or BP-34 found in serum” value is reported as “No BP-766 or BP-34 was found in any of the samples”. Also, in the series on mice [3] (i.p. injections), the “murine maximum tolerated dose (MTD)” value is listed as “approximately 250 mg/kg”. Moreover, the mortality entry with mice [3] (i.p. injections of 100-300 mg/kg) is on record as “no mortalities”. Besides, the morbidity / mortality result in the series on mice [3] (i.p., 300 mg/kg) is “Morbidity, but not mortality, was observed”.
Broadly, the LD50 is the dose at which mortality reaches 50%. High values mean a less toxic substance, low ones a more toxic substance. Broadly, the MTD is the highest dose tested that stayed within the study's limit of toxicity. Consider `CC(O)(CNC(=O)C(F)(F)F)C(=O)Nc1ccc([N+](=O)[O-])c(C(F)(F)F)c1` (centres unmarked) [BP-766, 2-hydroxy-2-methyl-N-(4-nitro-3-(trifluoromethyl)phenyl)-3-(2,2,2-trifluoroacetylamino)propanamide], for which the “% BP-766” value in [4] (60/40 EtOH/H2O, 55° C., 0 hours) was determined as 100%; in series [4] (60/40 EtOH/H2O, 55° C., 24 hours), 99.1%; in series [4] (60/40 EtOH/H2O, 55° C., 48 hours), 98.2%; in [4] (60/40 EtOH/H2O, RT, 0 hours), 100%; in series [4] (60/40 EtOH/H2O, RT, 24 hours), 99.9%; in series [4] (60/40 EtOH/H2O, RT, 48 hours), 99.69%. Also, the “% BP-766” value in [4] (Isopropanol (3-5% water), 55° C., 0 hours) is 100%; in [4] (Isopropanol (3-5% water), 55° C., 6 hours), 99.6%; in series [4] (Isopropanol (3-5% water), 55° C., 24 hours), 99.1%; in [4] (Isopropanol (3-5% water), 55° C., 144 hours), 98.7%. The BP-766 remaining in series [4] (0 weeks) is 100%; in series [4] (1 week), 99.6%; in [4] (2 weeks), 99.4%; in series [4] (3 weeks), 99.3%; in series [4] (4 weeks) it was 99.2%; in series [4] (5 weeks) it was 98.9%. Moreover, the BP-766 remaining in series [4] (6 weeks) was 98.8%; in series [4] (7 weeks) it was 98.3%; in series [4] (8 weeks), 98.4%. Also, the “% BP-766 remaining in human serum” value in series [5] (0 hours) is on record as 100%; in [5] (6 hours), 54.3%; in series [5] (24 hours), 10.9%; in [5] (48 hours), “Traces”. Moreover, the dermal irritation result in series [6] (six volunteers, 2% solution in anhydrous isopropanol, 1 ml twice daily on the scalp, 8 weeks) is “no dermal irritation”. Further, the “effluvium of the frontal hairline” value in series [6] (six volunteers, 2% solution, 1 ml twice daily, after 2 weeks) was “arrested the effluvium of the frontal hairline in all six volunteers”. For the same compound, the hair regrowth result in series [6] (two volunteers, after 4 months use) is “an evident regrowth was observed”. Further, the skin irritation potential result in the series with rabbits [7] is “no skin irritation potential was found”. Besides, the results for the LD50 (in [8] (female NMRI mice); in series [8] (male NMRI mice); with Wistar rats) were 2230 mg/kg, 2870 mg/kg and “greater than 2500 mg/kg body weight”, respectively. Moreover, the “signs of cutaneous irritation” value with rabbits [9] was “none was detected”. Also, in the series on mice [3] (i.p., daily for seven days), the “LD50 (daily dose for seven days that resulted in 50% mortality)” value was 450 mg/kg bw. In addition, in series [10], the MTD at 7 days was ~300 mg/kg.
